Like-named read-outs stand apart in the source and are kept apart here.
Legend:
[1] = humans, cited from earlier work
[2] = test system: NPC1mut BMDMs; assay: TNFα secretion (ELISA) by oxLDL/LPS-stimulated BMDMs, mutant; assay type: cell-based, mice; conditions: 0.6 μM sitostanol 4 hours after oxLDL, then LPS; vs carrier control; p=0.000; FIG. 1A
Protocol: (§1) Bone-marrow derived cells (BMDCs) were isolated from tibea and femurs of NPC1 wild type (WT) and mutant mice on a C57BL/6 background. BMDCs were cultured for 8-9 days in RPMI-1640 (GIBCO Invitrogen, Breda, The Netherlands) with 10% heat-inactivated fetal calf serum (Bodinco B. V. Alkmaar, The Netherlands), penicillin (100 U/ml), streptomycin (100 μg/ml) and L-glutamine (2 mM) (all GIBCO invitrogen, Breda, The Netherlands) enriched with 20% L929-conditioned medium (LCM) to generate bone marrow-derived macrophages (BMDMs). After attachment, the BMDMs were seeded at 350,000 cells per well in 24 wells plates and incubated with oxLDL for 24. After the oxLDL stimulation, the cells were washed and incubated with cyclodextrin (carrier control) or 0.6 μM sitostanol for 4 hours. The BMDMs were subsequently washed and stimulated with 100 ng/ml LPS for 4 hours to generate an inflammatory response. Finally, BMDMs were lysed for RNA isolation. Gene expression analysis of inflammatory (TNFα, Arginase 1 and inducible NOS), anti-inflammatory (IL-10) and lysosomal cholesterol trafficking (NPC1 and NPC2) genes was performed. […]
(§2) Mouse TNFα secreted protein levels were determined by using the TNFα ELISA kit (mouse TNFα ELISA Ready-SET-Go!, eBioscience, San Diego, Calif.). […] Optical density (OD) was measured at 450 nm by using a spectrophotometer and TNFα concentrations were determined.

[3] = test system: NPC1WT BMDMs; assay: Gene expression of inflammatory mediators in oxLDL/LPS-stimulated BMDMs, wild type; assay type: cell-based, mice; conditions: 0.6 μM sitostanol; p=0.028; FIG. 1B
Protocol: (§3) Bone-marrow derived cells (BMDCs) were isolated from tibea and femurs of NPC1 wild type (WT) and mutant mice on a C57BL/6 background. BMDCs were cultured for 8-9 days in RPMI-1640 (GIBCO Invitrogen, Breda, The Netherlands) with 10% heat-inactivated fetal calf serum (Bodinco B. V. Alkmaar, The Netherlands), penicillin (100 U/ml), streptomycin (100 μg/ml) and L-glutamine (2 mM) (all GIBCO invitrogen, Breda, The Netherlands) enriched with 20% L929-conditioned medium (LCM) to generate bone marrow-derived macrophages (BMDMs). After attachment, the BMDMs were seeded at 350,000 cells per well in 24 wells plates and incubated with oxLDL for 24. After the oxLDL stimulation, the cells were washed and incubated with cyclodextrin (carrier control) or 0.6 μM sitostanol for 4 hours. The BMDMs were subsequently washed and stimulated with 100 ng/ml LPS for 4 hours to generate an inflammatory response. Finally, BMDMs were lysed for RNA isolation. Gene expression analysis of inflammatory (TNFα, Arginase 1 and inducible NOS), anti-inflammatory (IL-10) and lysosomal cholesterol trafficking (NPC1 and NPC2) genes was performed. Furthermore, the supernatant was frozen until protein expression analysis of the pro-inflammatory TNFα was performed by Enzyme-Linked Immunosorbent Assay (ELISA).

[4] = test system: NPC1mut BMDMs; assay: Gene expression of inflammatory mediators in oxLDL/LPS-stimulated BMDMs, mutant; assay type: cell-based, mice; conditions: FIG. 1B
Protocol: as §3

[5] = test system: NPC1WT BMDMs; assay: TNFα secretion (ELISA) by oxLDL/LPS-stimulated BMDMs, wild type; assay type: cell-based, mice; conditions: 0.6 μM sitostanol 4 hours after oxLDL, then LPS; vs carrier control; p=0.000; FIG. 1A
Protocol: as §1, §2

[6] = in vivo; cited from earlier work

Compound	plasma concentration ([1]; 3 grams per day)	plasma concentration ([1]; 9 grams per day)	TNFα secretion [2]	gene expression of IL-10 [3]	gene expression of arginase 1 (M2 macrophage marker) ([4]; 0.6 μM sitostanol vs carrier control, p=0.000)	gene expression of Tnfα ([4]; 0.6 μM sitostanol vs carrier control, p=0.136)	iNOS/arginase 1 gene expression ratio ([4]; 0.6 μM sitostanol vs control-treated NPC1mut BMDMs, p=0.074)	TNFα secretion [5]	ability to cross the blood brain barrier [6]
CC[C@H](CC[C@@H](C)[C@H]1CC[C@H]2[C@@H]3CC[C@H]4C[C@@H](O)CC[C@]4(C)[C@H]3CC[C@]12C)C(C)C [sitostanol]	40.9 microgram per dl	57.2 microgram per dl	significantly reduced	increased	significantly increased	trend towards reduced expression	trend towards a reduced	significantly reduced	
cyclodextrin									inability of cyclodextrin to cross the blood brain barrier

Source: US20190328752A1, “COMPOUNDS FOR THE TREATMENT OF NIEMANN-PICK DISEASE TYPE C1” (UNIVERSITEIT MAASTRICHT, priority 2016, published 2019)
